# In US20100197752A1, “UROCANIC ACID DERIVATIVES USEFUL FOR THE TREATMENT OF IMMUNE-RELATED AND INFLAMMATORY DISEASES” (priority 2007, published 2010):
# Tests used:
# [1] = system: BALB/c mice; assay: Suppression of prolonged contact hypersensitivity (P-CHS), oxazolone-induced ear swelling; assay type: in vivo; details: for sequence from high to low effectiveness, suppressive effect on P-CHS response (ear swelling): BALB/c mice, oxazolone, topical twice daily, averaged from 2-3 experiments, compared to placebo (100% ear swelling), FIG. 3; for immunosuppressive, e.g. anti-inflammatory properties (efficacy): conclusion from P-CHS in BALB/c mice, topical application
# Procedure: Suppression of prolonged contact hypersensitivity (P-CHS) by ethyl imidazole-4-acetate in BALB/c mice.
# Ethyl imidazole-4-acetate was dissolved in ethanol/water 1:1 in a concentration of 5%. The topical application of ethanol/water 1:1 alone served as full-response control. Ethanol/water test solutions were topically applied with a pipette in aliquots of 20 μL/ear.
# Mice were sensitized with 10 μl 1% oxazolone in acetone on […] in all experiments on the outside of both ears. On day 0 mice were challenged with 10 μl 0.5% oxazolone in acetone on both ears. Repeated elicitations were applied on day 2, 4, 7, 9. Applied oxazolone concentrations in acetone were 0.5%, 0.25%, 0.25%, 0.25%, respectively. From day 1 up to one day before the final day of the experiment, twice-daily doses of test solutions were topically given at approximately 11 AM and […]. Duplicate ear thickness measurements were made on day 0, 1, 3, 5, 8, 10 and 11 prior to any daily topical application.
# The use of mice was allowed by the Committee of Experimental Animal handling of the Academic Medical Center Amsterdam. Female BALB/c mice (8-10 weeks of age) were purchased from Charles River (L′Arbresle, France) and kept in light, humidity and temperature-controlled rooms in the animal facility, 1-2 weeks before the experiment. They were fed ad libitum with water and CRM-E food van Special Diets services (SDS, Witham, Essex, UK).
# Data points, obtained with test compound administration, were compared to the data, obtained with vehicle (ethanol/water 1:1) administration and were statistically processed using Welch's unpaired t-test.
# [2] = system: IL-10 production in whole blood; assay: Effect of imidazole-derivates on the production of IL-10 in whole blood following LPS stimulation; assay type: cell-based; details: LPS stimulation (10 ng/ml), FIG. 4; for IL-10 production: 10−^4 Mol/l in whole blood
# Text: Effect of imidazole-derivates on the production of IL-10
# IL-10 is a cytokine that dims inflammatory immune responses. […] These findings in vitro have larger significance in a complete test system as whole blood, employed here, than in a monoculture test system (FIG. 4).
# FIG. 4. Effect of imidazole-derivates on the production of IL-10 in whole blood
# [3] = system: mice; details: Kammeyer et al. 2004, Norval et al. 1995, Noonan and De Fabo 1992; cited from earlier work
smiles,measurement,setting,value
"O=C([O-])c1c[nH]cn1.[Na+] [imidazole-4-carboxylic acid, imidazole-4-carboxylic acid, sodium salt]","sequence from high to low effectiveness, suppressive effect on P-CHS response (ear swelling)",[1],imidazole-4-acetic acid (ImAc)=imidazole-4-carboxylic acid
NCCc1c[nH]cn1 [Histamine],"IL-10 production, positive control compared with the imidazole-derivates",[2]; whole blood,stronger effect on IL-10 production than the imidazole-derivates
"O=C(O)c1c[nH]cn1 [ImCOOH, imidazole-4-carboxylic acid]",IL-10 production,[2],upregulation of IL-10
"CCOC(=O)Cc1c[nH]cn1 [Et-ImAc, ethyl imidazole-4-acetate]","sequence from high to low effectiveness, suppressive effect on P-CHS response (ear swelling)",[1],prednisolone>ethyl imidazole-4-acetate (Et-ImAc)>imidazole-4-acetic acid (ImAc)
same,"immunosuppressive, e.g. anti-inflammatory properties (efficacy)",[1],stronger than that of ImAc
same,IL-10 production,[2],upregulation of IL-10
C[C@]12C=CC(=O)C=C1CC[C@@H]1[C@@H]2[C@@H](O)C[C@@]2(C)[C@H]1CC[C@]2(O)C(=O)CO [prednisolone],"sequence from high to low effectiveness, suppressive effect on P-CHS response (ear swelling)",[1],prednisolone>ethyl imidazole-4-acetate (Et-ImAc)
same,"immunosuppressive, e.g. anti-inflammatory properties (efficacy)",[1],classical strong suppressant
"O=C(O)Cc1c[nH]cn1 [ImAc, Imidazole-4-acetic acid]","sequence from high to low effectiveness, suppressive effect on P-CHS response (ear swelling)",[1],ethyl imidazole-4-acetate (Et-ImAc)>imidazole-4-acetic acid (ImAc)=imidazole-4-carboxylic acid
same,"immunosuppressive, e.g. anti-inflammatory properties (efficacy)",[1],weak to moderate immunosuppressant
same,IL-10 production,[2],upregulation of IL-10
same,contact hypersensitivity (CHS) response,[3],suppress the contact hypersensitivity (CHS) response in mice
